Results on 15 molecules are retold here after ChEMBL document CHEMBL1933036, “Chromenones as potent bradykinin B1 antagonists” (Bioorg Med Chem Lett, 2012).

Tested on in the first series: not listed separately
Put plainly: Clearance in rat at 2 mg/kg, iv. The class given is ADME, organism-based. Particulars: in vivo. On the set-up: dose 2 mg/kg, route intravenous.
On to `O=C(N[C@H]1CCCc2cc(CN3CCCCC3)ccc21)c1ccc(-c2coc3cccc(Cl)c3c2=O)cc1`, for which the clearance (commonly a measure of how efficiently the substance is removed, as volume per time) is 17.7 mL/min/kg.

In turn, `O=C(N[C@H]1CCCc2cc(CN3CCCCC3)ccc21)c1ccc(-c2coc3cccc(F)c3c2=O)cc1` showed a clearance of 25.5 mL/min/kg.

Tested on in the next series: not listed separately
As to the kind of experiment: Volume of distribution at steady state in rat at 2 mg/kg, iv. The class given is ADME, organism-based. Particulars: in vivo, read-out: Vdss. On the set-up: dose 2 mg/kg, route intravenous.
On to `O=C(N[C@H]1CCCc2cc(CN3CCCCC3)ccc21)c1ccc(-c2coc3cccc(Cl)c3c2=O)cc1`, for which the Vd turned out to be 6.67 L/kg.

With `O=C(N[C@H]1CCCc2cc(CN3CCCCC3)ccc21)c1ccc(-c2coc3cccc(F)c3c2=O)cc1`, the Vd was determined as 8.83 L/kg.

Tested on in a further series: not listed separately
As to the kind of experiment: Half life in rat at 2 mg/kg, iv. It counts as ADME, organism-based. Further details: dose 2 mg/kg, route intravenous. Particulars: in vivo.
Consider `O=C(N[C@H]1CCCc2cc(CN3CCCCC3)ccc21)c1ccc(-c2coc3cccc(Cl)c3c2=O)cc1`, for which the half-life (as a rule, how long it takes for the measured level to halve) was 270 min.

Molecule `O=C(N[C@H]1CCCc2cc(CN3CCCCC3)ccc21)c1ccc(-c2coc3cccc(F)c3c2=O)cc1` showed a half-life of 228 min.

For another series, the target named is T1, B1 bradykinin receptor (Oryctolagus cuniculus, UniProt P48748).
T1 sequence (P48748 whole entry): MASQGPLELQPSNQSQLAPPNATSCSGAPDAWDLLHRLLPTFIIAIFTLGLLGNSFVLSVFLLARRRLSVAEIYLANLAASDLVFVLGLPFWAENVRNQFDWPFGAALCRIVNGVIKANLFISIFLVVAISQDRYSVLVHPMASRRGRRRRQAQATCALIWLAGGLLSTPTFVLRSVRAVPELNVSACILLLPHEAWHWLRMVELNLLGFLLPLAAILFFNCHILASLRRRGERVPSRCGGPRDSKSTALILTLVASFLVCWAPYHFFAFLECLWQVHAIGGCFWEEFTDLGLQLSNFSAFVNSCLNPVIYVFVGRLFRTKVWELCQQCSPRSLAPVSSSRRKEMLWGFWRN
As to the kind of experiment: Antagonist activity at rabbit B1 bradykinin receptor expressed in CHO cells. It counts as functional, cell-based.
Details: not given
Regarding `O=C(N[C@@H]1CCCc2cc(CN3CCCCC3)ccc21)c1cccc(-c2coc3ccccc3c2=O)c1`, the IC50 (usually the concentration needed to halve the response being measured) worked out at 476 nM.

The molecule `Cc1nn(-c2cccc(C(=O)N[C@@H]3CCCc4cc(CN5CCCCC5)ccc43)c2)c(=O)c2ccccc12` came in with a half-inhibitory concentration (IC50) of more than 6460 nM.

In turn, `Cc1nn(-c2ccc(C(=O)N[C@H]3CCCc4cc(CN5CCCCC5)ccc43)cc2)c(=O)c2ccccc12` came in with an IC50 of 98 nM.

`O=C(N[C@@H]1CCCc2cc(CN3CCCCC3)ccc21)c1cccc(-c2coc3cccc(Cl)c3c2=O)c1` came in with an IC50 of 248 nM.

Regarding `O=C(N[C@@H]1CCCc2cc(CN3CCCCC3)ccc21)c1cccc(-c2coc3ccc(Cl)cc3c2=O)c1`, the IC50 was more than 160 nM.

Molecule `O=C(N[C@@H]1CCCc2cc(CN3CCCCC3)ccc21)c1cccc(-c2coc3ccc(F)cc3c2=O)c1` displayed an IC50 of 393 nM.

`O=C(N[C@@H]1CCCc2cc(CN3CCCCC3)ccc21)c1cccc(-c2coc3cc(Cl)ccc3c2=O)c1` displayed an IC50 of more than 800 nM.

`O=C(N[C@@H]1CCCc2cc(CN3CCCCC3)ccc21)c1cccc(-c2coc3c(Cl)cccc3c2=O)c1` showed an IC50 of more than 800 nM.

`O=C(N[C@H]1CCCc2cc(CN3CCCCC3)ccc21)c1ccc(-c2coc3ccccc3c2=O)cc1` displayed an IC50 of 122 nM.

In turn, `O=C(N[C@H]1CCCc2cc(CN3CCCCC3)ccc21)c1ccc(-c2coc3cccc(Cl)c3c2=O)cc1` showed an IC50 of 30 nM.

As to `O=C(N[C@H]1CCCc2cc(CN3CCCCC3)ccc21)c1ccc(-c2coc3ccc(Cl)cc3c2=O)cc1`, the IC50 is more than 4000 nM.

In the case of `O=C(N[C@H]1CCCc2cc(CN3CCCCC3)ccc21)c1ccc(-c2coc3cc(Cl)ccc3c2=O)cc1`, the IC50 was more than 800 nM.

`O=C(N[C@H]1CCCc2cc(CN3CCCCC3)ccc21)c1ccc(-c2coc3c(Cl)cccc3c2=O)cc1` had an IC50 of more than 4000 nM.

Take `O=C(N[C@H]1CCCc2cc(CN3CCCCC3)ccc21)c1ccc(-c2coc3cccc(F)c3c2=O)cc1`: the IC50 turned out to be 24 nM.

With `Cc1cccc2occ(-c3ccc(C(=O)N[C@H]4CCCc5cc(CN6CCCCC6)ccc54)cc3)c(=O)c12`, 139 nM corresponded to half-maximal inhibition (IC50).

A further series has as its target T2, B1 bradykinin receptor (Homo sapiens, UniProt P46663).
T2 sequence (P46663 whole entry): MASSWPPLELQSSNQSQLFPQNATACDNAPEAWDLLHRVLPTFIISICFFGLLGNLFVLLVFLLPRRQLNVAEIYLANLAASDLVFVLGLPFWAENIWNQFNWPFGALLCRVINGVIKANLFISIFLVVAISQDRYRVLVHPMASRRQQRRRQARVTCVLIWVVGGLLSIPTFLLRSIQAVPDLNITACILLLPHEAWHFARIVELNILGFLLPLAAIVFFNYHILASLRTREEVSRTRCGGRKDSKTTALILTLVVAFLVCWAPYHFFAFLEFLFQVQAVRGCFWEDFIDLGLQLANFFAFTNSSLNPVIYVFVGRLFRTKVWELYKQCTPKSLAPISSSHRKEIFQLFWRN
Put plainly: Binding affinity to human B1 bradykinin receptor.
Details: not given
Consider `Cc1nn(-c2ccc(C(=O)N[C@H]3CCCc4cc(CN5CCCCC5)ccc43)cc2)c(=O)c2ccccc12`, for which the affinity, expressed as Ki, was 43 nM.

In the case of `O=C(N[C@@H]1CCCc2cc(CN3CCCCC3)ccc21)c1cccc(-c2coc3cccc(Cl)c3c2=O)c1`, the Ki – broadly, the equilibrium dissociation constant of an inhibitor or competing ligand from its target – was 29 nM.

Molecule `O=C(N[C@@H]1CCCc2cc(CN3CCCCC3)ccc21)c1cccc(-c2coc3ccc(Cl)cc3c2=O)c1` came in with a Ki of 767 nM.

Molecule `O=C(N[C@@H]1CCCc2cc(CN3CCCCC3)ccc21)c1cccc(-c2coc3ccc(F)cc3c2=O)c1` returned an inhibition constant Ki of 398 nM.

The molecule `O=C(N[C@@H]1CCCc2cc(CN3CCCCC3)ccc21)c1cccc(-c2coc3c(Cl)cccc3c2=O)c1` returned a Ki of 322 nM.

For `O=C(N[C@H]1CCCc2cc(CN3CCCCC3)ccc21)c1ccc(-c2coc3cccc(Cl)c3c2=O)cc1`, affinity was put at a Ki of 4 nM.

`O=C(N[C@H]1CCCc2cc(CN3CCCCC3)ccc21)c1ccc(-c2coc3ccc(Cl)cc3c2=O)cc1` registered a Ki of 1620 nM.

`O=C(N[C@H]1CCCc2cc(CN3CCCCC3)ccc21)c1ccc(-c2coc3cc(Cl)ccc3c2=O)cc1` returned a Ki of 42 nM.

The molecule `O=C(N[C@H]1CCCc2cc(CN3CCCCC3)ccc21)c1ccc(-c2coc3c(Cl)cccc3c2=O)cc1` displayed a Ki of 481 nM.

The molecule `O=C(N[C@H]1CCCc2cc(CN3CCCCC3)ccc21)c1ccc(-c2coc3cccc(F)c3c2=O)cc1` gave a Ki of 17 nM.

Molecule `Cc1cccc2occ(-c3ccc(C(=O)N[C@H]4CCCc5cc(CN6CCCCC6)ccc54)cc3)c(=O)c12` had a Ki of 15 nM.

A further series concerns the target T2, B1 bradykinin receptor. As to the kind of experiment: Antagonist activity at human B1 bradykinin receptor expressed in CHO cells by aqueorin-based calcium flux assay. It counts as functional, cell-based.
Details: not given
In the case of `O=C(N[C@@H]1CCCc2cc(CN3CCCCC3)ccc21)c1cccc(-c2coc3ccccc3c2=O)c1`, the IC50 stood at 112 nM.

Turning to `Cc1nn(-c2cccc(C(=O)N[C@@H]3CCCc4cc(CN5CCCCC5)ccc43)c2)c(=O)c2ccccc12`, the IC50 is 3400 nM.

With `Cc1nn(-c2ccc(C(=O)N[C@H]3CCCc4cc(CN5CCCCC5)ccc43)cc2)c(=O)c2ccccc12`, the IC50 is 7 nM.

For the molecule `O=C(N[C@@H]1CCCc2cc(CN3CCCCC3)ccc21)c1cccc(-c2coc3cccc(Cl)c3c2=O)c1`, the IC50 came out at 17 nM.

For the molecule `O=C(N[C@@H]1CCCc2cc(CN3CCCCC3)ccc21)c1cccc(-c2coc3ccc(Cl)cc3c2=O)c1`, the IC50 is 279 nM.

As for `O=C(N[C@@H]1CCCc2cc(CN3CCCCC3)ccc21)c1cccc(-c2coc3ccc(F)cc3c2=O)c1`, the IC50 was determined as 78 nM.

Regarding `O=C(N[C@@H]1CCCc2cc(CN3CCCCC3)ccc21)c1cccc(-c2coc3cc(Cl)ccc3c2=O)c1`, the IC50 is 799 nM.

Take `O=C(N[C@@H]1CCCc2cc(CN3CCCCC3)ccc21)c1cccc(-c2coc3c(Cl)cccc3c2=O)c1`: the half-maximal inhibitory concentration (IC50) was determined as 188 nM.

With `O=C(N[C@H]1CCCc2cc(CN3CCCCC3)ccc21)c1ccc(-c2coc3cccc(Cl)c3c2=O)cc1`, the half-inhibitory concentration (IC50) came to 4 nM.

As for `O=C(N[C@H]1CCCc2cc(CN3CCCCC3)ccc21)c1ccc(-c2coc3ccc(Cl)cc3c2=O)cc1`, the IC50 was more than 4000 nM.

As to `O=C(N[C@H]1CCCc2cc(CN3CCCCC3)ccc21)c1ccc(-c2coc3cc(Cl)ccc3c2=O)cc1`, the IC50 was determined as 264 nM.

As to `O=C(N[C@H]1CCCc2cc(CN3CCCCC3)ccc21)c1ccc(-c2coc3c(Cl)cccc3c2=O)cc1`, the IC50 was determined as 186 nM.

`O=C(N[C@H]1CCCc2cc(CN3CCCCC3)ccc21)c1ccc(-c2coc3cccc(F)c3c2=O)cc1`: the IC50 was found to be 12 nM.

Consider `Cc1cccc2occ(-c3ccc(C(=O)N[C@H]4CCCc5cc(CN6CCCCC6)ccc54)cc3)c(=O)c12`, for which the IC50 turned out to be 66 nM.

Tested on in the next series: not listed separately
Put plainly: Oral bioavailability in rat at 5 mg/kg. The class given is ADME, organism-based. Particulars: in vivo.
In the case of `O=C(N[C@H]1CCCc2cc(CN3CCCCC3)ccc21)c1ccc(-c2coc3cccc(Cl)c3c2=O)cc1`, the bioavailability (usually the share of a dose that reaches the circulation, judged against a reference dose that is usually intravenous) came to 43.6%.

Tested on in the next series: not listed separately
Put plainly: Oral bioavailability in rat at 2 mg/kg. Particulars: in vivo. It counts as ADME, organism-based.
Regarding `O=C(N[C@H]1CCCc2cc(CN3CCCCC3)ccc21)c1ccc(-c2coc3cccc(F)c3c2=O)cc1`, the bioavailability was 27.9%.

In a further series the test system is Oryctolagus cuniculus. As to the kind of experiment: Analgesic activity in New Zealand white rabbit mechanical hyperalgesia model assessed as reduction in carrageenan-induced paw withdrawal at 10 mg/kg, sc administered 60 mins before carrageenan challenge measured after 3 hrs. It counts as functional. On the set-up: scale not given: the % may be the effect or the level left. Particulars: route subcutaneous.
For the molecule `O=C(N[C@H]1CCCc2cc(CN3CCCCC3)ccc21)c1ccc(-c2coc3cccc(Cl)c3c2=O)cc1`, the Activity amounted to 65%.

Tested on in the next series: not listed separately
Put plainly: Plasma concentration in New Zealand white rabbit carrageenan-induced mechanical hyperalgesia model at 10 mg/kg, sc administered 60 mins before carrageenan challenge measured after 3 hrs. The class given is ADME, organism-based, Oryctolagus cuniculus. Further details: dose 10 mg/kg, route subcutaneous.
Details: not given
With `O=C(N[C@H]1CCCc2cc(CN3CCCCC3)ccc21)c1ccc(-c2coc3cccc(Cl)c3c2=O)cc1`, the concentration at 3 h turned out to be 379 nM.
